According to patent US20210353579A1, “HIGH PENETRATION COMPOSITIONS AND USES THEREOF” (Techfields Pharma Co., Ltd., priority 2006, published 2021):

Experiments:
normal rats [1] = assay: Blood glucose in normal rats, oral with food; assay type: in vivo, rat
mice (MRL/LPR) = assay: Anti-lupus erythematosus activity; assay type: in vivo, mouse; conditions: 30 mg/kg topically twice per day, after 6 weeks
[2] = tested on: rats (SLAC/GK, type 2 diabetes); assay: Blood glucose in type 2 diabetes rats, oral with food; assay type: in vivo, rat
In short: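 Compounds (dosed equivalent to 20 mg/kg of NSAIAs) mixed in food and given orally daily for 5 weeks to rats (n=7). Non-fasting blood glucose measured every 3 days at 3 pm from week 2 to week 5; blood lipids measured at end of week 5.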

[3] = tested on: mice (SLAC:NOD-IDDM, type 1 diabetes); assay: Blood glucose in type 1 diabetes mice, transdermal; assay type: in vivo, mouse
In short: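 NOD-IDDM type 1 diabetic mice (n=7) received prodrug transdermally on shaved back skin (~1.5 cm²), at a dose equivalent to 30 mg/kg NSAIA, once daily for 7 weeks. Non-fasted blood glucose was measured every 3 days at 3 pm from week 4 to week 7.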

normal rats [4] = assay: Blood glucose in normal rats, transdermal; assay type: in vivo, rat
In short: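 Compounds equivalent to 20 mg/kg NSAIA were applied transdermally to a shaved ~1.5 cm^2 area of rat backs once daily at 8 am for 5 weeks (n=7). Non-fasting blood glucose was measured every 3 days at 3 pm from week 2 to week 5, and blood lipids at the end of week 5.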

[5] = tested on: rats (SLAC/GK, type 2 diabetes); assay: Blood glucose in type 2 diabetes rats, transdermal; assay type: in vivo, rat; conditions: diabetic rats (SLAC/GK)
In short: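 GK type 2 diabetic rats (n=7) received the HPPs transdermally on a shaved ~1.5 cm^2 area of the back, at a dose equal to 20 mg/kg of NSAIAs, once daily for 5 weeks. Non-fasting blood glucose was measured every 3 days at 3 pm from week 2 to week 5, and blood lipids at the end of week 5.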

[6] = tested on: Human breast cancer cells (BCAP-37); assay: Human breast cancer xenograft in nude mice, topical; conditions: day 42; 30 μl of 5% (1.5 mg) topically every 8 hours from day 14; control 800 ± 100
In short: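 BCAP-37 tumour tissue (2-3 mm^3) was xenografted subcutaneously into the front leg of nude BALB mice, 7 per group. Compounds were applied topically as 30 μl of 5% solution (1.5 mg) in acetone or water.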

[7] = baseline, equal to 20 mg/kg of NSAIAs

SMILES: CC(=O)Oc1ccccc1C(=O)O.CCN(CC)CCOC(=O)c1ccccc1OC(C)=O [P-1, diethylaminoethyl acetylsalicylate.acetylsalicylic acid salt]
- Blood glucose, Normal rats, Average (normal rats [1]; average second to fifth week, equal to 20 mg/kg of NSAIAs every day): 6.5 ± 1 mmol/L
- Blood glucose, Normal rats, Baseline (normal rats [1]; [7]): 6.3 ± 1 mmol/L
- skin lesions and lupus nephritis (mice (MRL/LPR)): all skin lesions and lupus nephritis were resolved
- Blood glucose, Diabetic rats, Average ([2]; average second to fifth week, no fasting, equal to 20 mg/kg of NSAIAs every day for 5 weeks): 6.5 ± 1 mmol/L
- Blood glucose, Diabetic rats, Baseline [2, 7]: 16.5 ± 3 mmol/L
- Blood glucose, Average ([3]; average fourth to seventh week, no fasting, equal to 30 mg/kg of NSAIAs once per day for 7 weeks): 6.5 ± 1 mmol/L
- Blood glucose, Baseline ([3]; baseline, equal to 30 mg/kg of NSAIAs): 26.1 ± 5 mmol/L
- Blood glucose, Average (normal rats [4]; normal rats (second Average line of Table 24), average second to fifth week, equal to 20 mg/kg of NSAIAs once per day): 6.3 ± 1 mmol/L
- Blood glucose, Baseline (normal rats [4]; normal rats (second Baseline line of Table 24), baseline, equal to 20 mg/kg of NSAIAs): 6.4 ± 1 mmol/L
- Blood glucose, Average ([5]; average second to fifth week, no fasting, equal to 20 mg/kg of NSAIAs once per day for 5 weeks): 6.5 ± 1 mmol/L
- Blood glucose, Baseline ([5]; baseline, equal to 20 mg/kg of NSAIAs once per day): 16.1 ± 3 mmol/L
- Tumor size [6]: 150 ± 50 mm^3
